From article doi:10.1101/112086v2 (biorxiv, 2017)
Where a chain is given by its changes, count along the chain named.

Key:
[1] = target: T1, GST-Mps1 full length (Homo sapiens, UniProt P33981); test: biochemical
T1 sequence (P33981 1-857): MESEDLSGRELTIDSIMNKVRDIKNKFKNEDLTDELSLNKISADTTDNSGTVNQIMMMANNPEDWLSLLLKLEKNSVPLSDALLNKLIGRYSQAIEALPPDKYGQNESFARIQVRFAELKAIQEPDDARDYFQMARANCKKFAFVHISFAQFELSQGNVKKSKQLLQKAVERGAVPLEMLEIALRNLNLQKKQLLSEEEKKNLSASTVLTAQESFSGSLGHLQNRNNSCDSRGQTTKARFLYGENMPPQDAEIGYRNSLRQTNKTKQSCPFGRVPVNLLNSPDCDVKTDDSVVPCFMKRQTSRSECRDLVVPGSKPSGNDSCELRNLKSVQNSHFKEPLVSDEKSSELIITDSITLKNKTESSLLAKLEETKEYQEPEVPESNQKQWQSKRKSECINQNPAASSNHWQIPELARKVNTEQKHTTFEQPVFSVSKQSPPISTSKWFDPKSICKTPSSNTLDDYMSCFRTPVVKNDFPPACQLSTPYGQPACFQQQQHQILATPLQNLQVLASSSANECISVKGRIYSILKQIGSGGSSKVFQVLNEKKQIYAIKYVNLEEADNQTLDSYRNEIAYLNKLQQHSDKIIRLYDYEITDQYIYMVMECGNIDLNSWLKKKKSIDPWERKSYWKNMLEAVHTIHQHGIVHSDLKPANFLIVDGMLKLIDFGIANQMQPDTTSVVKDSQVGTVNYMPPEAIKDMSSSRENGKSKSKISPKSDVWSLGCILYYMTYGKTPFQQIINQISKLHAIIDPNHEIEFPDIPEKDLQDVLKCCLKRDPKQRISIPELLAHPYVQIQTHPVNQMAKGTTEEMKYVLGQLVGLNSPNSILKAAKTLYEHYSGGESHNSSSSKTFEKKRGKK

[2] = target: T2, Mps1 kinase domain (Homo sapiens, UniProt P33981); test: microscale thermophoresis, DY-547P1 labelled protein; format: binding
T2 sequence (P33981 519-808): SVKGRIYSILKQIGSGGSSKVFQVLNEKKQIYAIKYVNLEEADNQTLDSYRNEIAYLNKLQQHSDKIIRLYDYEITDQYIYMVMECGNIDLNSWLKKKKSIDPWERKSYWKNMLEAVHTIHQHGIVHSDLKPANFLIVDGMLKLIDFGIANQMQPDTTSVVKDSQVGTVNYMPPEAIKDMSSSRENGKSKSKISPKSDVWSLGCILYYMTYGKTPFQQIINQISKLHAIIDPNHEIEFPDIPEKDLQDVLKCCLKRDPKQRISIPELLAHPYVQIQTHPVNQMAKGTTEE

[3] = target: T3, GST-Mps1 full length (Homo sapiens, UniProt P33981, C604Y); test: biochemical
T3 sequence (P33981 1-857 C604Y): T1 sequence (P33981 1-857) with C604Y

[4] = target: T4, Mps1 kinase domain (Homo sapiens, UniProt P33981, C604W); test: microscale thermophoresis, DY-547P1 labelled protein; format: binding
T4 sequence (P33981 519-808 C604W): T2 sequence (P33981 519-808) with C86W

[5] = target: T5, GST-Mps1 full length (Homo sapiens, UniProt P33981, C604W); test: biochemical
T5 sequence (P33981 1-857 C604W): T1 sequence (P33981 1-857) with C604W

[6] = target: T6, Mps1 kinase domain (Homo sapiens, UniProt P33981, C604Y); test: microscale thermophoresis, DY-547P1 labelled protein; format: binding
T6 sequence (P33981 519-808 C604Y): T2 sequence (P33981 519-808) with C86Y

IC50 [1]: 9.2 ± 1.6 nM
Kd [2]: 1.6 ± 0.2 nM
IC50 [3]: 170 ± 30 nM
Kd [4]: 349 ± 81 nM
IC50 [5]: 19 ± 1 nM
Kd [6]: 471 ± 50 nM
SMILES: CCc1cccc(CC)c1NC(=O)c1nn(C)c2c1CCc1cnc(Nc3ccc(N4CCN(C)CC4)cc3OC)nc1-2 [Cpd-5, N-(2,6-diethylphenyl)-8-((2-methoxy-4-(4-methylpiperazin-1-yl)phenyl)amino)-1-methyl-4,5-dihydro-1H-pyrazolo[4,3-h]quinazoline-3-carboxamide]
